Experimental findings from US20090099237A1, “Methods of treating inflammatory diseases” (Roche Palo Alto LLC, priority 2007, published 2009) are described below.

Molecules are shown by their SMILES.

One may read the IC50 as the concentration that inhibits the measured activity by half.

Test [1] relates to LPS-induced air pouch synovitis. Description: Air pouch synovitis model. The format is in vivo, Balbc/J mice. Conditions: 1 μg LPS, FIG. 3. An excerpt:
(§1) Selective CK1α, CK1α-CK1δ, CK1α-CK1ε or CK1α-CK1δ-CK1ε inhibitors can be tested for their antiinflammatory effects using a variety of in vitro and in vivo tests that are well known in the art. One such in vitro test involves the application of the inhibitor to human neutrophils to observe whether the induction of inflammatory cytokines, such as IL-8, by tumor necrosis factor (TNF) or lipopolysaccharide (LPS) can be reduced. This test is further described in Example 3. An example of an in vivo test, as described in Example 4, is the air pouch model of inflammatory synovitis in mice in which the inhibitors are tested for their blockade of neutrophil influx as well as of inflammatory cytokine accumulation.
Adult Balbc/J mice were purchased from Charles River Labs and housed and utilized according IACUC protocols and standards. The airpouch was inflated on the dorsal surface of each mouse with 3 ml of air, after light anesthesia with CO2/O2 mix. Three days later each pouch was re-inflated with 3 mls of air. After an additional three days, the pouches were injected with vehicle or compound (normally in 0.1% DMSO in PBS) in 1 ml per pouch. After 20 to 30 minutes, each pouch received 1 μg of LPS or control (PBS). The animals were euthanized four to six hours later. The pouches were flushed with 2 ml of PBS, the cells were then collected, counted and normalized for volume recovered. The fluid recovered was analyzed for cytokine production (Luminex Mouse 21-plex assay). The cells were lysed for RNA or protein analysis.

In test [2] the target is T1, CK1α (Homo sapiens, UniProt P48729).
T1 construct: purchased Invitrogen
Description: In vitro kinase assay (33P, peptide substrate). Format: biochemical.

Test [3] has as its system IL-8 production in neutrophils. Description: Neutrophil assay, IL-8 production. The format is cell-based. Conditions: human neutrophils stimulated by inflammatory agents; FIG. 2.
Text: as §1
The Histopaque 1077 and 1119 gradient density centrifugation method (Sigma-Aldrich) was used to isolate granulocytes from human blood. The granulocytes were recovered from the 1077/1119 interphase, washed twice with PBS. The red blood cells were lysed with PureGene red cell lysis buffer (Gentra Biosystems). The cells were washed again and resuspended in growth media (RPMI, 10% FBS, β-mercaptoethanol, Pen/Strep/glutamine and sodium pyruvate) at a density of 1 to 5 million per ml. […] The supernatant was analyzed for cytokine production (Luminex human 22-plex assay) and the cells were lysed for RNA production and analysis.

T1 sequence (P48729 whole entry): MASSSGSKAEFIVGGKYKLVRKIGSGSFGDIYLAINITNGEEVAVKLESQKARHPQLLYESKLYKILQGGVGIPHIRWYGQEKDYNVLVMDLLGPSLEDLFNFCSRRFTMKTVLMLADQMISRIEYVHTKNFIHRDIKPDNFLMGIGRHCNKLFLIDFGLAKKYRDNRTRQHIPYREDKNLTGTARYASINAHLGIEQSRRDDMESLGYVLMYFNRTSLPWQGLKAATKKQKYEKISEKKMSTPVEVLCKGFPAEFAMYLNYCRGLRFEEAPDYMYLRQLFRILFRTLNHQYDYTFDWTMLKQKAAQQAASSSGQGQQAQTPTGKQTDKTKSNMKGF

For the molecule `NC(=O)c1ccc(-c2nc(-c3ccc4c(c3)OCO4)c(-c3ccccn3)[nH]2)cc1` [SB431542, 4-(4-benzo-[1,3]dioxol-5-yl-5-pyridin-2-yl-1H-imidazol-2-yl)benzamide], in test [1] (mouse air pouch fluid), the “production of IL-6” value is recorded as “inhibited” and the “production of MCP1” value is listed as “inhibited”. In test [1] (mouse air pouch, compound injected into pouch), the neutrophil influx entry was “inhibited”. In test [2], the half-maximal inhibitory concentration (IC50) turned out to be 1400 nM. Further, the “inhibition of IL-8 production in neutrophils” value in test [3] was “dose-dependent inhibition”.
